Assay results: ChEMBL document CHEMBL1149119, “Discovery of a potent and novel motilin agonist” (J Med Chem, 2004)

What was measured:
[1] = molecular target: T1, Motilin receptor (Homo sapiens, UniProt O43193); test: In vitro effective concentration towards human motilin receptor; assay type: functional
[2] = molecular target: T1, Motilin receptor; test: In vitro binding affinity towards human motilin receptor

T1 sequence (O43193 whole entry): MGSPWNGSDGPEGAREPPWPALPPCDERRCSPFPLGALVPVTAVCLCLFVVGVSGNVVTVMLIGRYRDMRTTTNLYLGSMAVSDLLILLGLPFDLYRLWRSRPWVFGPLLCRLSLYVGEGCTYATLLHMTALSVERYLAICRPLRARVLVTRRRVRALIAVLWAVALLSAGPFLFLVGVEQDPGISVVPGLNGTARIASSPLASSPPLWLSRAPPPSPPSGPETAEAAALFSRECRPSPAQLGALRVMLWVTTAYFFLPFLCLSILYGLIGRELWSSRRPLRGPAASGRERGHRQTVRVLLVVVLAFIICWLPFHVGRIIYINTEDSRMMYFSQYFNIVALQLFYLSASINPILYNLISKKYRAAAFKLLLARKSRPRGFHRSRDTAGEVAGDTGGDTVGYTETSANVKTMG

Row | Compound | EC50 [1] [nM] | Ki [2] [nM]
1 | CC[C@H]1OC(=O)[C@H](C)[C@@H](O[C@H]2C[C@@](C)(OC)C[C@@H](C)O2)[C@H](C)[C@@H](O[C@@H]2O[C@H](C)C[C@H](N(C)CC)[C@H]2O)[C@@]2(C)CC(C)=C(O2)[C@H](C)[C@@H](O)[C@H]1C | 4.2 | 3.4
2 | NC(=O)[C@H](CCc1ccccc1)NC(=O)[C@H](CCc1ccccc1)NC(=O)C1C=CC2(CCNCC2)n2c(=O)n(Cc3ccc4c(c3)OCO4)c(=O)n21 (stereo partly specified) | 0.22 | 2
3 | C[C@H](NC(=O)C1C=CC2(CCNCC2)n2c(=O)n(Cc3ccc4c(c3)OCO4)c(=O)n21)C(N)=O (stereo partly specified) | > 10000 | 
4 | NC(=O)[C@@H](CCc1ccccc1)NC(=O)[C@@H](CCc1ccccc1)NC(=O)C1CCC2(CCNCC2)n2c(=O)n(Cc3ccc4c(c3)OCO4)c(=O)n21 (stereo partly specified) | 7.3 | 2.7
5 | NC(=O)[C@H](Cc1ccccc1)NC(=O)C1C=CC2(CCNCC2)n2c(=O)n(Cc3ccc4c(c3)OCO4)c(=O)n21 (stereo partly specified) | > 10000 | 
6 | NC(=O)[C@@H](CCc1ccccc1)NC(=O)C1C=CC2(CCNCC2)n2c(=O)n(Cc3ccc4c(c3)OCO4)c(=O)n21 (stereo partly specified) | > 10000 | > 10000
7 | C[C@@H](NC(=O)C1C=CC2(CCNCC2)n2c(=O)n(Cc3ccc4c(c3)OCO4)c(=O)n21)C(N)=O (stereo partly specified) | > 10000 | 
8 | COC(=O)[C@@H](CCc1ccccc1)NC(=O)C1C=CC2(CCNCC2)n2c(=O)n(Cc3ccc4c(c3)OCO4)c(=O)n21 (stereo partly specified) | > 10000 | > 10000
9 | NC(=O)[C@@H](Cc1ccccc1)NC(=O)C1C=CC2(CCNCC2)n2c(=O)n(Cc3ccc4c(c3)OCO4)c(=O)n21 (stereo partly specified) | 4200 | 
10 | NC(=O)[C@H](CCc1ccccc1)NC(=O)C1C=CC2(CCNCC2)n2c(=O)n(Cc3ccc4c(c3)OCO4)c(=O)n21 (stereo in doubt; 1A) | > 10000 | 5800
11 | NC(=O)[C@H](CCc1ccccc1)NC(=O)C1C=CC2(CCNCC2)n2c(=O)n(Cc3ccc4c(c3)OCO4)c(=O)n21 (stereo in doubt; 1B) | 560 | 4100
12 | NC(=O)[C@H](CCc1ccccc1)NC(=O)[C@H](CCc1ccccc1)NC(=O)C1CCC2(CCNCC2)n2c(=O)n(Cc3ccc4c(c3)OCO4)c(=O)n21 (stereo in doubt; 11) | 0.35 | 1
13 | NC(=O)[C@H](CCc1ccccc1)NC(=O)[C@H](CCc1ccccc1)NC(=O)C1CCC2(CCNCC2)n2c(=O)n(Cc3ccc4c(c3)OCO4)c(=O)n21 (stereo in doubt; 11A) | 0.047 | 0.7
14 | NC(=O)[C@H](CCc1ccccc1)NC(=O)C1C=CC2(CCNCC2)n2c(=O)n(Cc3ccc4c(c3)OCO4)c(=O)n21 (stereo in doubt; 13B) | > 10000 | > 10000
15 | CC[C@H](C)[C@H](NC(=O)[C@@H]1CCCN1C(=O)[C@@H](NC(=O)[C@@H](N)Cc1ccccc1)C(C)C)C(=O)N[C@@H](Cc1ccccc1)C(=O)N[C@H](C(=O)N[C@@H](Cc1ccc(O)cc1)C(=O)NCC(=O)N[C@@H](CCC(=O)O)C(=O)N[C@@H](CC(C)C)C(=O)N[C@@H](CCC(N)=O)C(=O)N[C@@H](CCCNC(=N)N)C(=O)N[C@@H](CCSC)C(=O)N[C@@H](CCC(N)=O)C(=O)N[C@@H](CCC(=O)O)C(=O)N[C@@H](CCCCN)C(=O)N[C@@H](CCC(=O)O)C(=O)N[C@@H](CCCNC(=N)N)C(=O)N[C@@H](CC(N)=O)C(=O)N[C@@H](CCCCN)C(=O)NCC(=O)N[C@@H](CCC(N)=O)C(=O)O)[C@@H](C)O [MOTILIN] | 0.15 | 3.1
